# US20140100241A1 (priority 2007, published 2014)
# Read-outs that look alike come from different tables or passages of the source.
# Experiments:
# [1] = tested on: patients with opiate dependence; assay: Clinical detoxification of opiate-dependent patients with decreasing buprenorphine troche doses (microdose protocol)
# [2] = cited from earlier work
compound,measurement,setting,value
O=C1CC[C@@]2(O)[C@H]3Cc4ccc(O)c5c4[C@@]2(CCN3CC2CC2)[C@H]1O5 [Naltrexone],return of withdrawal symptoms after the end of buprenorphine treatment,[1]; Naltrexone administered at 12.5 mg,up to five days
"COC12CCC3(CC1C(C)(O)C(C)(C)C)C1Cc4ccc(O)c5c4C3(CCN1CC1CC1)C2O5 [Buprenorphine, (2S)-2-[(−)-(5R,6R,7R,14S)-9α-cyclopropylmethyl-4,5-epoxy-6,14-ethanomorphinan-7-yl]-3-hydroxy-6-methoxy-3,3-dimethylbutan-2-ol]",mean half-life,[2]; in vivo,35 to 37 h
same,elimination half-life (mean),[2]; mean,37 h
same,first-pass metabolism,[2]; oral administration,very high
same,elimination half-life,[2]; range,20 to 73 h
same,mean half-life,[2]; taken sublingually,35 to 37 h
same,withdrawal symptoms after dose reduction,"[1]; 2.0 mg dose reduction, experienced or chronic user of narcotic type medications",significant withdrawal symptoms
same,time to return of withdrawal symptoms,[1]; cut-off of 2.0 mg,≤ 24 h
same,treatment outcome,[1]; fractional dose of 1.5 mg after a final 3.0 mg dose,unsuccessful
same,patients transitioned safely and in a symptomless manner from buprenorphine to the blocker Naltrexone,"[1]; increased number of sub 0.1 mg doses, treatment three or more months",~100%
same,completion rate (completion means a narcotic free state),"[1]; microdose methods over an extended period, months rather than days or weeks",approximately 96%
same,duration of withdrawal symptoms,"[1]; previous treatment regimens, doses 8.0 to 3.0 mg",three to five days
same,withdrawal symptoms reported by patients,[1]; serial doses of 0.25 mg,"perceptible and, in some cases, intolerable withdrawal symptoms"
same,success rate,[1]; when taken to completion of the dose reduction schedule,greater than 90%
CN1C(=O)CN=C(c2ccccc2)c2cc(Cl)ccc21 [Diazepam],observed effect in the early phase of withdrawal,[1]; outpatients,too dis-inhibiting
